Experiments:
[1] = biological target: T1, CquiOR37 (Culex quinquefasciatus, UniProt W0HHK8); format: cell-based
T1 sequence (W0HHK8 1-385): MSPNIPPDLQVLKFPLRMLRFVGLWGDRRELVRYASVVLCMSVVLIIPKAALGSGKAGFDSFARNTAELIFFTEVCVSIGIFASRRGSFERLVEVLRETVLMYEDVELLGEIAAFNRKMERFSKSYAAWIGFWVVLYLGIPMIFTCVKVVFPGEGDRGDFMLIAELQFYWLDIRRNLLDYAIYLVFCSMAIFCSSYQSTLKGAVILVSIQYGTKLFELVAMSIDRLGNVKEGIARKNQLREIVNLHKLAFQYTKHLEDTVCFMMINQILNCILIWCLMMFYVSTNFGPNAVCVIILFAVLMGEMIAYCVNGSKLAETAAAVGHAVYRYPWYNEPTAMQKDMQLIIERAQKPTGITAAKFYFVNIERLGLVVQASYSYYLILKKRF
T1 sequence (Q309I4 1-480 partner): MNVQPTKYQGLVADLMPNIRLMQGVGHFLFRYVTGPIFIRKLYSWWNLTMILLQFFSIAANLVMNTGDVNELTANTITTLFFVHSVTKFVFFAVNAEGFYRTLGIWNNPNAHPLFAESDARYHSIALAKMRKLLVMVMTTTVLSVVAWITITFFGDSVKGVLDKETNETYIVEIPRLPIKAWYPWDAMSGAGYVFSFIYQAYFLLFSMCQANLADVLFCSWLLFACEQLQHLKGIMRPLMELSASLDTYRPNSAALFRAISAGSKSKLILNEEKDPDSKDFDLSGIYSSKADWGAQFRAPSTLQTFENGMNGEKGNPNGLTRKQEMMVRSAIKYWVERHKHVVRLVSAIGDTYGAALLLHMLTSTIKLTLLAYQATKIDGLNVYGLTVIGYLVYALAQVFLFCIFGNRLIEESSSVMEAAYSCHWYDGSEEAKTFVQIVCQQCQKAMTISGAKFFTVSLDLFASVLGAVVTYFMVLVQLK

[2] = biological target: T2, CquiOR99 (Culex quinquefasciatus, UniProt W0HIQ7); format: cell-based
T2 sequence (W0HIQ7 1-389): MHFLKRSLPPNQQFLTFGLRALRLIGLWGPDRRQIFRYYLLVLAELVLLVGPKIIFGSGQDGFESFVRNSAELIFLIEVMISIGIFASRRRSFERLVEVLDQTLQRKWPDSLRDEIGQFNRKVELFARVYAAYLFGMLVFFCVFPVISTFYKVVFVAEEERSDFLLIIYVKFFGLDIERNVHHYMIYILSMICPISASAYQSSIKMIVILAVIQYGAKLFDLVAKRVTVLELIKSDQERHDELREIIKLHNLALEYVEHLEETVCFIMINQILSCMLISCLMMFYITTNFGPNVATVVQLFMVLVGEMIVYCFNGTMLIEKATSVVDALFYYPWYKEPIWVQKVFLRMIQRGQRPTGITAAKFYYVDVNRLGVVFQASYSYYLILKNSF
T2 sequence (Q309I4 1-480 partner): T1 sequence (Q309I4 1-480 partner)

Structure (SMILES) | EC50 [1] | EC50 [2]
CCc1ccc(O)cc1 [4-ethylphenol] | 18.2 µM | 0.74 µM
Cc1ccc(O)cc1 [4-methylphenol] | 6.4 µM | 14.4 µM
